# Measured values reported in ChEMBL document CHEMBL3286307, “Imidazo[2,1]thiazol-3-one Derivatives Useful as Diagnostic Agents for Alzheimer's Disease” (ACS Med Chem Lett, 2014).
# Legend:
# [1] = biological target: Amyloid-beta precursor protein (Homo sapiens, UniProt P05067); test: Inhibition of amyloid beta (unknown origin) aggregation by Thiazin-red R displacement fluorescence assay
# [2] = biological target: Microtubule-associated protein tau (Homo sapiens, UniProt P10636); test: Inhibition of recombinant human microtubule associated protein tau aggregation by Thiazin-red R displacement fluorescence assay
# Sequence of Microtubule-associated protein tau (P10636 whole entry): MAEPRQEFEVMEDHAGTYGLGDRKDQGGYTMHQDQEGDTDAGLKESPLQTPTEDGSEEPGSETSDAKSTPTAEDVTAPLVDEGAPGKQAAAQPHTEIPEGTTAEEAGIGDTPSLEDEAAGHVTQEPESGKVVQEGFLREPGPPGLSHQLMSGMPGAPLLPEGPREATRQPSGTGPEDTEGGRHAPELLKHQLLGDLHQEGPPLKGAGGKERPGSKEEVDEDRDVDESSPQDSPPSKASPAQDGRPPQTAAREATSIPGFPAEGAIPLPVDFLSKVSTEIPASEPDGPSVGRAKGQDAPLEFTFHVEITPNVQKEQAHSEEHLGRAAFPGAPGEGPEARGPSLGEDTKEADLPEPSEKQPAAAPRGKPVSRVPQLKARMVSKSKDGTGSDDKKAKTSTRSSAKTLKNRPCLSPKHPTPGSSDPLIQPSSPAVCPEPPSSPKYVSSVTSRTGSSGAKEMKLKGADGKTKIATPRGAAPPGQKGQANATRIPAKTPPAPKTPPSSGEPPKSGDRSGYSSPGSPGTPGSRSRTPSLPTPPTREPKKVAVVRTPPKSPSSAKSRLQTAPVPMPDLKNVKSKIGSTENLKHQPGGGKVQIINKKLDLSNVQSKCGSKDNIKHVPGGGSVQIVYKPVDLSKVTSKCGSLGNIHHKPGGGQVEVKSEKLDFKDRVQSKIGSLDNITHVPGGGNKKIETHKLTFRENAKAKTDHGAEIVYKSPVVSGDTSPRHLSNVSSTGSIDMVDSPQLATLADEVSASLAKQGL
# Sequence of Amyloid-beta precursor protein (P05067 whole entry): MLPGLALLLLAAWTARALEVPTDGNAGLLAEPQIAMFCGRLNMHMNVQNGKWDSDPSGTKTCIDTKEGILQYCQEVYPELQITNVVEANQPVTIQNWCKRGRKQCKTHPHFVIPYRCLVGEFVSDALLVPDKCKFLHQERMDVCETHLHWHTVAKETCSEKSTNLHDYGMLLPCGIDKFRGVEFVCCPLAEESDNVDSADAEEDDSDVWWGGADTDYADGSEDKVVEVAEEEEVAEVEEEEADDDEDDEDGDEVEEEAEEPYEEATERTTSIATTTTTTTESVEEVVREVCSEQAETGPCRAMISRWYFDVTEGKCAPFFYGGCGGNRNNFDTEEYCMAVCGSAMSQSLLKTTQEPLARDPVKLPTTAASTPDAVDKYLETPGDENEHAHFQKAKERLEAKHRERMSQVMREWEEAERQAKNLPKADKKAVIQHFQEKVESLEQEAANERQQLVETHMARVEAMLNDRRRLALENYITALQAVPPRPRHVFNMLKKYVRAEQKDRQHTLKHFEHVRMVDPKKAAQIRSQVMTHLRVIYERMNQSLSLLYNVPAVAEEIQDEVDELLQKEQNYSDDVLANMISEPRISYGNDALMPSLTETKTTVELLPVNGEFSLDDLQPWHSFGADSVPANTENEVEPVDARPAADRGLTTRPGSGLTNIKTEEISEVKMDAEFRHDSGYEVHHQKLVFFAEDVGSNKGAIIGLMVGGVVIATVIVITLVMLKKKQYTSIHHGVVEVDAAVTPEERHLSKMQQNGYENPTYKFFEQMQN
IC50 [1] [nM],IC50 [2] [nM],Structure (SMILES)
> 10000,79,COc1cc(/C=c2\sc3nc(-c4ccncc4C)cn3c2=O)ccc1O
32,8,COc1cc(/C=c2\sc3nc(-c4ccncc4C)cn3c2=O)cc(OC)c1O
> 10000,–,COc1cc(/C=c2\sc3nc(-c4cccc(OC(F)(F)F)c4)cn3c2=O)cc(F)c1O
